Data from US9862701B2, “Inhibitors of KRAS G12C mutant proteins” (Araxes Pharma LLC, priority 2014, dated 2018).

Target: T1, KRAS G12C 1-169, his-tagged protein, GDP-loaded (Homo sapiens, UniProt P01116, G12C)
T1 construct: KRAS G12C 1-169, his-tagged protein, GDP-loaded
Assay: Biochemical assay: covalent binding to KRAS G12C, analyzed by mass spectrometry
Conditions: percent of KRAS G12C protein covalently bound to test compound; 2 μm protein, room temperature
Method: Test compounds were prepared as 10 mM stock solutions in DMSO (Fisher cat# BP-231-100). KRAS G12C 1-169, his-tagged protein, GDP-loaded was diluted to 2 μm in buffer (20 mM Hepes, 150 mM NaCl, 1 mM MgCl2). Compounds were tested for activity as follows:
Compounds were diluted to 50× final test concentration in DMSO in 96-well storage plates. Compound stock solutions were vortexed before use and observed carefully for any sign of precipitation. Dilutions were as follow: • For 100 μM final compound concentration, compounds were diluted to 5000 μM (5 μl 10 mM compound stock+5 μl DMSO and mixed well by pipetting. • For 30 μM final compound concentration, compounds were diluted to 1500 μM (3 μl 10 mM compound stock+17 μl DMSO) and mixed well by pipetting. • For 10 μM final compound concentration, compounds were diluted to 500 μM (2 μl 10 mM compound stock+38 μl DMSO) and mixed well by pipetting. 49 μl of the stock protein solution was added to each well of a 96-well PCR plate (Fisher cat#1423027). 1 μl of the diluted 50× compounds were added to appropriate wells in the PCR plate using 12-channel pipettor. Reactions were mixed carefully and thoroughly by pipetting up/down with a 200 μl multi-channel pipettor. The plate was sealed well with aluminum plate seal, and stored in drawer at room temperature for 24 hrs. 5 μl of 2% formic acid (Fisher cat# A117) in DI H2O was then added to each well followed by mixing with a pipette. The plate was then resealed with aluminum seal and stored on dry ice until analyzed as described below.
The above described assays were analyzed by mass spectrometry according to the following procedure:
The MS instrument is set to positive polarity, 2 GHz resolution, and low mass (1700) mode and allowed to equilibrate for 30 minutes. The instrument is then calibrated, switched to acquisition mode and the appropriate method loaded.
After another 30 minute equilibration time, a blank batch (i.e., buffer) is run to ensure equipment is operating properly. The samples are thawed at 37° C. for 10 minutes, briefly centrifuged, and transfer to the bench top. Wells A1 and H12 are spiked with 1 uL 500 uM internal standard peptide, and the plates centrifuged at 2000×g for 5 minutes. The method is then run and masses of each individual well recorded.
The masses (for which integration data is desired) for each well are pasted into the platemap and exported from the analysis. Masses for the internal standards are exported as well. The data at 50 ppm is extracted for the +19 charge state, and identity of well A1 is assigned using the internal standard spike and integrated. Peak data is exported as a TOF list and the above steps are repeated individually, for the +20, 21, 22, 23, 24, and 25 charge states.

| SMILES | Binding % |
| --- | --- |
| C=CC(=O)N1CCN(Cc2ccc(-c3cc(O)ccc3Cl)cc2)CC1 [Compound 17, 1-(4-((2′-chloro-5′-hydroxybiphenyl-4-yl)methyl)piperazin-1-yl)prop-2-en-1-one] | ++ (indicates binding activity greater than 10% and up to 20%) |
| C=CC(=O)N1CCN(c2ccc(-c3c(O)cccc3F)cc2)CC1 [Compound 25, 1-(4-(2′-fluoro-6′-hydroxybiphenyl-4-yl)piperazin-1-yl)prop-2-en-1-one] | + (indicates binding activity from 5% to 10%) |
| C=CC(=O)N1CCC(Cn2ccc(-c3cc(O)ccc3Cl)cc2=O)CC1 [Compound 12, 1-((1-acryloylpiperidin-4-yl)methyl)-4-(2-chloro-5-hydroxyphenyl)pyridin-2(1H)-one] | ++ (indicates binding activity greater than 10% and up to 20%) |
| C=CC(=O)N1CCN(c2ccc(-c3c(C)ccc4[nH]ncc34)c3cn[nH]c23)CC1 [Compound 26, 1-(4-(5′-methyl-1H,1′H-4,4′-biindazol-7-yl)piperazin-1-yl)prop-2-en-1-one] | + (indicates binding activity from 5% to 10%) |
| C=CC(=O)N1CCN(c2ccc(-c3cc(O)ccc3Cl)cn2)CC1 [Compound 8, 1-(4-(5-(2-chloro-5-hydroxyphenyl)pyridin-2-yl)piperazin-1-yl)prop-2-en-1-one] | ++ (indicates binding activity greater than 10% and up to 20%) |
| C=CC(=O)N1CCN(Cc2ccc(-c3c(C)ccc4[nH]ncc34)cc2)CC1 [Compound 16, 1-(4-(4-(5-methyl-1H-indazol-4-yl)benzyl)piperazin-1-yl)prop-2-en-1-one] | + (indicates binding activity from 5% to 10%) |
| C=CC(=O)N1CCN(c2ccc(-c3cc(O)ccc3Cl)c(C(N)=O)c2)CC1 [Compound 10, 4-(4-acryloylpiperazin-1-yl)-2′-chloro-5′-hydroxybiphenyl-2-carboxamide] | +++ (indicates binding activity greater than 20% and up to 30%) |
| C=CC(=O)N1CCC(Cn2ccc(-c3ccccc3C(F)(F)F)cc2=O)CC1 [Compound 13, 1-((1-acryloylpiperidin-4-yl)methyl)-4-(2-(trifluoromethyl)phenyl) pyridin-2(1H)-one] | + (indicates binding activity from 5% to 10%) |
| C=CC(=O)N1CCN(c2ccc(-c3cc(O)ccc3CC)cc2)CC1 [Compound 5, 1-(4-(2′-ethyl-5′-hydroxybiphenyl-4-yl)piperazin-1-yl)prop-2-en-1-one] | ++++ (indicates binding activity greater than 30%) |
| C=CC(=O)N1CCN(c2ccc(-c3cc(OC)cc(Cl)c3Cl)cc2)CC1 [Compound 3, 1-(4-(2′,3′-dichloro-5′-methoxybiphenyl-4-yl)piperazin-1-yl)prop-2-en-1-one] | + (indicates binding activity from 5% to 10%) |
| C=CC(=O)N1CCN(Cc2ccc(-c3cc(O)ccc3Cl)cc2O)CC1 [Compound 20, 1-(4-((2′-chloro-3,5′-dihydroxybiphenyl-4-yl)methyl)piperazin-1-yl)prop-2-en-1-one] | +++ (indicates binding activity greater than 20% and up to 30%) |
| C=CC(=O)N1CCN(c2ccc(-c3cc(O)ccc3Cl)c(C#N)c2)CC1 [Compound 11, 4-(4-acryloylpiperazin-1-yl)-2′-chloro-5′-hydroxybiphenyl-2-carbonitrile] | +++ (indicates binding activity greater than 20% and up to 30%) |
| C=CC(=O)N1CCN(c2ncc(-c3cc(O)ccc3Cl)cn2)CC1 [Compound 7, 1-(4-(5-(2-chloro-5-hydroxyphenyl)pyrimidin-2-yl)piperazin-1-yl)prop-2-en-1-one] | ++ (indicates binding activity greater than 10% and up to 20%) |
| C=CC(=O)N1CCN(c2ccc(-c3c(C)ccc4[nH]ncc34)cc2)CC1 [Compound 22, 1-(4-(4-(5-methyl-1H-indazol-4-yl)phenyl)piperazin-1-yl)prop-2-en-1-one] | + (indicates binding activity from 5% to 10%) |
| C=CC(=O)N1CCN(Cc2ccc(-c3ccccc3C(F)(F)F)cc2)CC1 [Compound 15, 1-(4-((2′-(trifluoromethyl)biphenyl-4-yl)methyl)piperazin-1-yl)prop-2-en-1-one] | + (indicates binding activity from 5% to 10%) |
| C=CC(=O)N1CCN(Cc2ccc(-c3c(C)ccc4[nH]ncc34)c(Cl)c2)CC1 [Compound 19, 1-(4-(3-chloro-4-(5-methyl-1H-indazol-4-yl)benzyl)piperazin-1-yl)prop-2-en-1-one] | ++ (indicates binding activity greater than 10% and up to 20%) |
| C=CC(=O)N1CCC(n2ccc(-c3cc(O)ccc3Cl)cc2=O)CC1 [Compound 6, 1-(1-acryloylpiperidin-4-yl)-4-(2-chloro-5-hydroxyphenyl)pyridin-2(1H)-one] | ++ (indicates binding activity greater than 10% and up to 20%) |
| C=CC(=O)N1CCN(c2ccc(-c3cc(O)ccc3Cl)cc2)CC1 [Compound 1, 1-(4-(2′-chloro-5′-hydroxybiphenyl-4-yl)piperazin-1-yl)prop-2-en-1-one] | ++++ (indicates binding activity greater than 30%) |
| C=CC(=O)N1CCN(c2ccc(-c3cc(O)cc(Cl)c3)cc2)CC1 [Compound 2, 1-(4-(3′-chloro-5′-hydroxybiphenyl-4-yl)piperazin-1-yl)prop-2-en-1-one] | ++ (indicates binding activity greater than 10% and up to 20%) |
| C=CC(=O)N1CCN(Cc2ccc(-c3ccccc3C(F)(F)F)cc2O)CC1 [Compound 21, 1-(4-((3-hydroxy-2′-(trifluoromethyl)biphenyl-4-yl)methyl)piperazin-1-yl)prop-2-en-1-one] | + (indicates binding activity from 5% to 10%) |
| C=CC(=O)N1CCN(c2ccc(-c3cc(O)ccc3Cl)cc2C#N)CC1 [Compound 9, 4-(4-acryloylpiperazin-1-yl)-2′-chloro-5′-hydroxybiphenyl-3-carbonitrile] | ++++ (indicates binding activity greater than 30%) |
| C=CC(=O)N1CCN(c2ccc(-c3cc(O)ccc3Cl)cc2C(N)=O)CC1 [Compound 14, 4-(4-acryloylpiperazin-1-yl)-2′-chloro-5′-hydroxybiphenyl-3-carboxamide] | +++ (indicates binding activity greater than 20% and up to 30%) |
| C=CC(=O)N1CCN(Cc2ccc(-c3cc(O)ccc3Cl)c(Cl)c2)CC1 [Compound 18, 1-(4-((2,2′-dichloro-5′-hydroxybiphenyl-4-yl)methyl)piperazin-1-yl)prop-2-en-1-one] | ++ (indicates binding activity greater than 10% and up to 20%) |
| C=CC(=O)N1CCN(c2ccc(-c3cc(O)ccc3Cl)c3cn[nH]c23)CC1 [Compound 24, 1-(4-(4-(2-chloro-5-hydroxyphenyl)-1H-indazol-7-yl)piperazin-1-yl)prop-2-en-1-one] | ++++ (indicates binding activity greater than 30%) |
| C=CC(=O)N1CCN(c2ccc(-c3cc(O)cc(Cl)c3Cl)cc2)CC1 [Compound 4, 1-(4-(2′,3′-dichloro-5′-hydroxybiphenyl-4-yl)piperazin-1-yl)prop-2-en-1-one] | +++ (indicates binding activity greater than 20% and up to 30%) |
| C=CC(=O)N1CCN(c2ccc(-c3ccc(O)cc3Cl)cc2)CC1 [Compound 23, 1-(4-(2′-chloro-4′-hydroxybiphenyl-4-yl)piperazin-1-yl)prop-2-en-1-one] | + (indicates binding activity from 5% to 10%) |
